Measured values from US9560869B2, “Food composition comprising desferrichrysin” (NESTEC S.A., priority 2013, dated 2017).

Assays:
[1] = Colour change of fortified yoghurt during storage at 37° C. for 120 days (CIELAB); format: physicochemical; conditions: for colour change over time (in words): stored at 37° C. for 120 days
Description: (§1) Commercial yoghurt, Nestlé Jogolino™ Strawberry/Banana yoghurt containing 15% banana puree and 10% strawberry puree was iron fortified by the addition of different iron salts to 5 kg yoghurt as reported in the table below. The amounts were chosen to provide approximately 0.8 mg iron per 100 g yoghurt. […] Colour measurements were performed in 1×1 cm polystyrene cuvettes using an X-Rite ColorEye 7000A colorimeter. The colorimeter was set up with a D65 light source, 10 degree observer angle and with specular component included. The colour difference between the yoghurt with no iron salts and the iron fortified yoghurt was measured for each iron salt and expressed as ΔEab* using the CIELAB colour scale. 70 g samples of the fortified yoghurt samples described above were placed in 100 mL glass jars and stored at 37° C. for 120 days. Colour measurements were performed at a range of time intervals.

[2] = Colour difference of iron fortified strawberry/banana yoghurt vs yoghurt with no iron salts after flash pasteurization (CIELAB); format: physicochemical
Description: as §1, with “scale.” for “scale. 70 g samples of the fortified yoghurt samples described above were placed in 100 mL glass jars and stored at 37° C. for 120 days. Colour measurements were performed at a range of time intervals.”

[3] = in vivo; cited from earlier work

Molecule | colour change over time (in words) [1] | colour compared with yoghurt with no added iron (in words) ([2]; after flash pasteurization at 105° C. for 2 minutes) | ΔEab* ([2]; colour difference vs yoghurt with no iron salts, approx. 0.8 mg iron per 100 g yoghurt, flash pasteurized at 105° C. for 2 minutes) | ΔEab* day 7 ([1]; stored at 37° C., vs colour immediately after pasteurization, day 7) | ΔEab* day 30 ([1]; stored at 37° C., vs colour immediately after pasteurization, day 30) | ΔEab* day 60 ([1]; stored at 37° C., vs colour immediately after pasteurization, day 60) | ΔEab* day 120 ([1]; stored at 37° C., vs colour immediately after pasteurization, day 120) | bioavailability of iron (in words) [3]
O=S(=O)([O-])[O-].[Fe+2] [FeSO4 × H20, Ferrous sulphate, reference compound] | much greater colour changes | – | – | – | – | – | – | –
Ferrichrysin | smaller than the yoghurts fortified by the other iron salts | closest colour to the yoghurt with no added iron | 1.57 | 1.03 | 1.32 | 3.77 | 6.46 | good source of bioavailable iron
